Legend:
[1] = Parallel artificial membrane permeability assay for the blood–brain barrier (PAMPA-BBB); conditions: for AerExt log Pe: compound within AerExt donor solution; for AerExt log Pe / RootExt log Pe: 37 °C, 4 h, PBS pH 7.4, n.q. = not quantified in the acceptor plate; for RootExt log Pe: compound within RootExt donor solution; for Papp at 4 h: PAMPA, pH 7.4; for AerExt Cross BBB Potential: compound within AerExt; for AerExt Cross BBB Potential / RootExt Cross BBB Potential: PAMPA-BBB; for RootExt Cross BBB Potential: compound within RootExt
Protocol: The permeability of bioactive compounds from AerExt and RootExt across the BBB was assessed using the PAMPA-BBB assay, following the methodology described by [11]. Firstly, the BBB solution was prepared by dissolving 8 mg of PBL and 4 mg of cholesterol in 600 μL of n-dodecane. The initial donor solution was prepared by mixing 1 mL of AerExt or RootExt (at 10 mg mL^−1 in EtOH) with 1 mL of buffer (PBS, pH = 7.4, 10 mM). The filter membrane of the donor plate was coated with 5 μL of BBB solution. The acceptor plate was filled with 350 μL of buffer, and the donor plate was carefully placed on top of the acceptor plate to form a “sandwich-like” assembly. Subsequently, 350 μL of the donor solution was added to the donor plate, which was then covered and incubated at 37 °C for 4 h in the dark. After the incubation time, 300 μL of the solution was collected from each plate, transferred into separate vials, and evaporated using a SpeedVac system at 40 °C under 13 mbar pressure. The dried acceptor and donor solutions were dissolved in 50 μL of pure EtOH before being subjected to HPLC-Q-TOF-MS/MS and GC-Q-TOF-MS analysis. Permeability (Pe) across the PAMPA-BBB of the bioactive compound was calculated according to Equation (1) [54], with modifications in concentration rates.Pe = −ln[1 − CA(t)/Cequilibrium]/(A × (1/VD + 1/VA) × t)(1)
Cequilibrium was calculated according to Equation (2):Cequilibrium = [CD(t) × VD + CA(t) × VA]/(VD + VA)(2)
The HPLC-MS and GC-MS chromatograms were processed using the Agilent Mass Hunter Qualitative software (version B.10.0) to verify the retention time and exact mass of the compounds previously reported by us [25] and to extract their peak area to calculate the BBB permeability.

[2] = oil/water partition coefficient; Table 1; ref PubChem; cited from earlier work
HBMEC cells = test: Blood–brain barrier transport study in HBMEC Transwell monolayer; conditions: for crossing of the HBMEC-BBB: AerExt 40 µg mL^−1 / RootExt 20 µg mL^−1, 2, 4, 24 h; for RootExt Te (%) ± SD 2 h / RootExt Te (%) ± SD 4 h / RootExt Te (%) ± SD 24 h: RootExt 20 µg mL^−1 apical; for RootExt Te (%) ± SD 2 h / RootExt Te (%) ± SD 4 h / RootExt Te (%) ± SD 24 h / AerExt Te (%) ± SD 2 h / AerExt Te (%) ± SD 4 h / AerExt Te (%) ± SD 24 h: n.q. = not quantified in the basolateral compartment; for AerExt Te (%) ± SD 2 h / AerExt Te (%) ± SD 4 h / AerExt Te (%) ± SD 24 h: AerExt 40 µg mL^−1 apical
Protocol: After the toxicity evaluation, the HBMEC cell line was also used as a simplified in vitro model of the BBB endothelium. Cells were seeded at a density of 1.6 × 10^5 cells/cm^2 in 12-well Transwell® plates (Corning Costar Corp., Corning, USA) with a pore diameter of 0.4 μm, pre-coated with type I rat tail collagen (100 μg mL^−1) [55]. The culture medium was renewed every 2 days until a monolayer cell structure was formed (see Supplementary Figure S2), and transport experiments were initiated after 10 days. In transport experiments, the medium in the apical (upper) compartment of the Transwell system was removed, and 0.5 mL of AerExt or RootExt at a concentration of 40 μg mL^−1 and 20 μg mL^−1, respectively, was added to these compartments (applied in duplicate). Also, a medium containing 0.4% (v/v) ethanol was used as control group. The basolateral (lower) compartments were filled with 1.5 mL of fresh culture medium. The cells were incubated under these conditions for 2, 4, and 24 h.
At the end of the incubation periods, media samples were collected from both chambers and lyophilized using a freeze-drying system from Martin Christ (Osterode am Harz, Germany). The samples were stored at −80 °C until analysis. The collected samples were subjected to chemical analyses to evaluate the ability of bioactive compounds contained in the extracts to pass through the cell monolayer.
The transport efficiency (Te) of bioactive substances was calculated based on Equation (3), described by [56]:Te (%) = CLower/CUpper × 100(3)
This calculation was performed to understand whether the compound crosses the cell layer and how efficiently it is transported.
For this purpose, 0.2 mL of cold water (H2O) was added to the samples, and the samples were vortexed for 10 s. Then, 0.8 mL of cold methanol was added and vortexed again for 10 s. Then, the mixture was centrifuged at 14,000 rpm for 5 min, and the supernatant was carefully transferred to a 1.5 mL Eppendorf tube and dried in a SpeedVac device at 40 °C and 13 bar pressure. Finally, the dried samples were resuspended in 25 μL of pure ethanol for their subsequent analysis.
For HPLC-Q-TOF MS/MS analysis, aliquots of 2 μL were injected into an HPLC model 1290 coupled to a Q-TOF series 6540 (Agilent Technologies, Waldbronn, Germany). For GC-Q-TOF MS analysis, aliquots of 1 μL were injected with a split ratio of 1:10 into a GC model 7890B coupled to a Q-TOF series 7200 (Agilent Technologies, Waldbronn, Germany). The HPLC-MS and GC-MS chromatograms were processed using the Agilent Mass Hunter Qualitative software (version B.10.0) to verify the retention time and exact mass of the compounds previously reported by us [25] and to extract their peak area to calculate the BBB permeability.

| Compound | AerExt log Pe [1] | RootExt log Pe [1] | log p [2] | further results |
| --- | --- | --- | --- | --- |
| O=C(O)C=Cc1cc(O)ccc1O [2,5-dihydroxycinnamic acid] | −5.68 | −5.22 | 1.2 | crossing of the HBMEC-BBB (HBMEC cells): could not cross the HBMEC-BBB; RootExt Te (%) ± SD 2 h (HBMEC cells): n.q.; RootExt Te (%) ± SD 4 h (HBMEC cells): n.q.; RootExt Te (%) ± SD 24 h (HBMEC cells): n.q. |
| COc1ccc(-c2cc(=O)c3c(OC)c(OC)c(OC)c(OC)c3o2)cc1OC [Nobiletin] |  |  | 3.0 | Papp at 4 h [1]: 49 ×10⁻⁶ cm/s; crossing of the HBMEC-BBB (HBMEC cells): could not cross the HBMEC-BBB; AerExt Te (%) ± SD 2 h (HBMEC cells): n.q.; AerExt Te (%) ± SD 4 h (HBMEC cells): n.q.; AerExt Te (%) ± SD 24 h (HBMEC cells): n.q.; RootExt Te (%) ± SD 2 h (HBMEC cells): n.q.; RootExt Te (%) ± SD 4 h (HBMEC cells): n.q.; RootExt Te (%) ± SD 24 h (HBMEC cells): n.q. |
| C/C=C\c1cc(OC)c(OC)cc1OC [β-asarone] |  | n.q. | 3.0 | AerExt Te (%) ± SD 2 h (HBMEC cells): 7.5 ± 2.0%; AerExt Te (%) ± SD 4 h (HBMEC cells): 15.0 ± 7.3%; AerExt Te (%) ± SD 24 h (HBMEC cells): 15.5 ± 1.0% |
| COc1ccc([C@@H]2CC(=O)c3c(O)cc(O[C@@H]4O[C@H](CO[C@@H]5O[C@@H](C)[C@H](O)[C@@H](O)[C@H]5O)[C@@H](O)[C@H](O)[C@H]4O)cc3O2)cc1O [Hesperidin] | n.q. | n.q. | −1.1 | AerExt Te (%) ± SD 2 h (HBMEC cells): n.q.; AerExt Te (%) ± SD 4 h (HBMEC cells): n.q.; AerExt Te (%) ± SD 24 h (HBMEC cells): n.q.; RootExt Te (%) ± SD 2 h (HBMEC cells): n.q.; RootExt Te (%) ± SD 4 h (HBMEC cells): n.q.; RootExt Te (%) ± SD 24 h (HBMEC cells): n.q. |
| O=c1cc(-c2ccc(O)c(O)c2)oc2cc(O[C@@H]3O[C@H](CO)[C@@H](O)[C@H](O)[C@H]3O)cc(O)c12 [Luteolin 7-glucoside] |  | n.q. | 0.5 | AerExt Cross BBB Potential [1]: + (log Pe < −6.5) |
| CC1=C2C[C@H](C(C)(C)O)CC[C@@]2(C)CCC1 [γ-eudesmol] |  |  | 3.7 | AerExt Cross BBB Potential [1]: + (log Pe < −6.5); RootExt Cross BBB Potential [1]: + (log Pe < −6.5) |
| COc1cc([C@@H]2OC[C@@H]3[C@H]2CO[C@H]3c2cc(OC)c(O[C@@H]3O[C@H](CO)[C@@H](O)[C@H](O)[C@H]3O)c(OC)c2)cc(OC)c1O[C@@H]1O[C@H](CO)[C@@H](O)[C@H](O)[C@H]1O [Syringaresinol diglucoside] | n.q. | n.q. | −1.4 | AerExt Te (%) ± SD 2 h (HBMEC cells): n.q.; AerExt Te (%) ± SD 4 h (HBMEC cells): n.q.; AerExt Te (%) ± SD 24 h (HBMEC cells): n.q. |
| CC(C)=CCC[C@](C)(O)[C@@H]1CC=C(C)CC1 [α-bisabolol] |  |  | 1.3 | AerExt Cross BBB Potential [1]: + (log Pe < −6.5); RootExt Cross BBB Potential [1]: + (log Pe < −6.5) |
| O=c1cc(-c2ccc(O)cc2)oc2cc(O)cc(O)c12 [Apigenin] |  | n.q. | 1.7 | Papp at 4 h [1]: 97.7 ×10⁻⁶ cm/s; AerExt Te (%) ± SD 2 h (HBMEC cells): 4.2 ± 0.9%; AerExt Te (%) ± SD 4 h (HBMEC cells): 5.1 ± 0.3%; AerExt Te (%) ± SD 24 h (HBMEC cells): 309.7 ± 93.0% |
| CC1=CCC[C@]2(C)CCC(=C(C)C)C[C@@H]12 [Selina-3,7(11)-diene] | n.q. | n.q. | 4.4 |  |
| CC(=O)OC(C)(C)[C@@H]1CC[C@H](C)C2=C(C1)[C@@H](C)CC2 [Guaiol acetate] | n.q. | −5.05 | 3.6 |  |
| CC1=C2CCC(C)C2CC(C(C)(C)O)CC1 (stereo not drawn) [Bulnesol] | n.q. | n.q. | 3.8 |  |
| C=CC1(C)CCC(=C(C)C)CC1C(=C)C (stereo not drawn) [γ-elemene] | n.q. | n.q. | 5.4 |  |
| C[C@@H]1CCC=C2CC[C@@H](C(C)(C)O)C[C@]21C [Valerianol] | −5.35 | −5.59 | 3.5 | RootExt Cross BBB Potential [1]: + (log Pe < −6.5) |
| O=C(O)/C=C/c1ccc(O)cc1 [4-coumaric acid] | n.q. | n.q. | 1.5 | AerExt Te (%) ± SD 2 h (HBMEC cells): n.q.; AerExt Te (%) ± SD 4 h (HBMEC cells): n.q.; AerExt Te (%) ± SD 24 h (HBMEC cells): n.q.; RootExt Te (%) ± SD 2 h (HBMEC cells): n.q.; RootExt Te (%) ± SD 4 h (HBMEC cells): n.q.; RootExt Te (%) ± SD 24 h (HBMEC cells): n.q. |
| C[C@H]1CC[C@@H](C(C)(C)O)CC2=C1CC[C@@H]2C [Guaiol] | n.q. | n.q. | 3.1 |  |
| COc1cc(/C=C/CO)cc(OC)c1O [trans-sinapyl alcohol] |  |  | 1.3 | RootExt Cross BBB Potential [1]: + (log Pe < −6.5) |
| CC1=CCC[C@@H](C)[C@]12CC[C@@H](C(C)(C)O)C2 [Agarospirol] | n.q. | n.q. | 3.7 |  |
| CC(=O)c1ccc(O)c(O)c1 [3,4-dihydroxyacetophenone] |  |  | 1.5 | Papp at 4 h [1]: 17.4 ×10⁻⁶ cm/s |
| COc1ccc(-c2cc(=O)c3c(O)cc(O)cc3o2)cc1O [Diosmetin] |  |  | 1.7 | Papp at 4 h [1]: 148 ×10⁻⁶ cm/s |
| O=Cc1cccc(C(=O)O)c1O [3-formylsalicylic acid] |  | −5.50 | 1.0 |  |
| CC1=C2C[C@H](C(C)(C)O)CC[C@]2(C)CCC1 [epi-γ-eudesmol] |  |  | 2.9 | AerExt Cross BBB Potential [1]: + (log Pe < −6.5); RootExt Cross BBB Potential [1]: + (log Pe < −6.5) |
| C[C@@H]1CCCC2=CC[C@@H]3[C@@H](C3(C)C)[C@]21C [(–)-aristolene] | n.q. | n.q. | 4.7 |  |
| α-epi-7-epi-5-eudesmol | n.q. | n.q. | 3.4 |  |
| C=CCc1cc(OC)c2c(c1)OCO2 [Myristicin] |  | n.q. | 2.9 |  |
| O=C(/C=C/c1ccc(O)c(O)c1)OC1C(O)CC2(O)CC1OC2=O (stereo not drawn) [4-caffeoylquinic acid lactone] |  |  | 0.4 | AerExt Cross BBB Potential [1]: + (log Pe < −6.5) |
| COc1cc(-c2cc(=O)c3c(O)cc(O)cc3o2)ccc1O [Chrysoeriol] | n.q. |  | 1.7 |  |

— article PMC12386606, “Evaluation of the In Vitro Blood–Brain Barrier Transport of Ferula persica L. Bioactive Compounds” (International Journal of Molecular Sciences, 2025)
